Results on seven compounds are retold here after PubChem BioAssay (NCI).

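A five-concentration, 48-hour dose response in 96-well plates underlies each endpoint, interpolated linearly between surrounding concentrations. GI50 marks 50% less growth. TGI marks complete inhibition of growth.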

In the first assay the test system is HCT-116 colon. In words: growth of human tumour cells (NCI), 48 h.
With `NS(=O)(=O)OC[C@@H]1C[C@@H](n2ccc3c(NC4CCc5ccccc54)ncnc32)C[C@@H]1O` (stereo not given in full), the GI50 was 0.103 µM and the TGI came to 5.46 µM.

In the case of `O=C1/C(=C/c2ccc(O)c(O)c2)CCC/C1=C\c1ccc(O)c(O)c1`, the TGI is 7.17 µM.

On to `Nc1ccccc1C#C/C=C\C#Cc1ccccc1OC(F)(F)F`, for which the GI50 was 4.45 µM and the TGI was found to be 16.7 µM.

Turning to `CC(C)=CCC\C(C)=C/C=C/C(C)=C\C=C\C(C)=C/C=C/C=C(C)\C=C\C=C(C)/C=C/C=C(/C)CCC=C(C)C`, the TGI is more than 100 µM.

Consider `Cc1ccc(CN2CCC(C(=O)Nc3ccc(-c4cc5ccccc5[nH]4)cc3)CC2)o1`, for which the GI50 was more than 100 µM and the TGI was more than 100 µM.

In turn, `C=CCOc1ccc2c(C)cc(=O)oc2c1C` had a TGI of more than 100 µM.

In the case of `Nc1c(C(=O)c2cccc(CCS(N)(=O)=O)c2)cnn1-c1ccc(F)cc1`, the GI50 is more than 25 µM and the TGI is more than 25 µM.

In another assay the test system is HT29 colon. In words: growth of human tumour cells (NCI), 48 h.
`NS(=O)(=O)OC[C@@H]1C[C@@H](n2ccc3c(NC4CCc5ccccc54)ncnc32)C[C@@H]1O` (stereo not given in full): the GI50 is 0.566 µM and the TGI amounted to 29.2 µM.

`O=C1/C(=C/c2ccc(O)c(O)c2)CCC/C1=C\c1ccc(O)c(O)c1` showed a TGI of 21.2 µM.

On to `Nc1ccccc1C#C/C=C\C#Cc1ccccc1OC(F)(F)F`, for which the GI50 was 3.62 µM and the TGI came to 28.7 µM.

Compound `CC(C)=CCC\C(C)=C/C=C/C(C)=C\C=C\C(C)=C/C=C/C=C(C)\C=C\C=C(C)/C=C/C=C(/C)CCC=C(C)C` registered a TGI of more than 100 µM.

In the case of `Cc1ccc(CN2CCC(C(=O)Nc3ccc(-c4cc5ccccc5[nH]4)cc3)CC2)o1`, the GI50 is 94.2 µM and the TGI was more than 100 µM.

For `C=CCOc1ccc2c(C)cc(=O)oc2c1C`, the TGI is more than 100 µM.

Regarding `Nc1c(C(=O)c2cccc(CCS(N)(=O)=O)c2)cnn1-c1ccc(F)cc1`, the GI50 was more than 25 µM and the TGI is more than 25 µM.

The test system of the next assay is IGROV1 ovarian. In words: growth of human tumour cells (NCI), 48 h.
`NS(=O)(=O)OC[C@@H]1C[C@@H](n2ccc3c(NC4CCc5ccccc54)ncnc32)C[C@@H]1O` (stereo not given in full): the GI50 was 7.83 µM and the TGI was more than 100 µM.

Compound `O=C1/C(=C/c2ccc(O)c(O)c2)CCC/C1=C\c1ccc(O)c(O)c1` showed a TGI of 15.9 µM.

Consider `Nc1ccccc1C#C/C=C\C#Cc1ccccc1OC(F)(F)F`, for which the GI50 is 5.64 µM and the TGI stood at 39.9 µM.

Compound `CC(C)=CCC\C(C)=C/C=C/C(C)=C\C=C\C(C)=C/C=C/C=C(C)\C=C\C=C(C)/C=C/C=C(/C)CCC=C(C)C` had a TGI of more than 100 µM.

As for `Cc1ccc(CN2CCC(C(=O)Nc3ccc(-c4cc5ccccc5[nH]4)cc3)CC2)o1`, the GI50 was more than 100 µM and the TGI is more than 100 µM.

`C=CCOc1ccc2c(C)cc(=O)oc2c1C` yielded a TGI of more than 100 µM.

With `Nc1c(C(=O)c2cccc(CCS(N)(=O)=O)c2)cnn1-c1ccc(F)cc1`, the GI50 is more than 25 µM and the TGI is more than 25 µM.

The next assay has as its system LOX IMVI melanoma. In words: growth of human tumour cells (NCI), 48 h.
For `NS(=O)(=O)OC[C@@H]1C[C@@H](n2ccc3c(NC4CCc5ccccc54)ncnc32)C[C@@H]1O` (stereo not given in full), the GI50 is 0.0673 µM and the TGI turned out to be 0.436 µM.

The compound `O=C1/C(=C/c2ccc(O)c(O)c2)CCC/C1=C\c1ccc(O)c(O)c1` registered a TGI of 7.68 µM.

Take `Nc1ccccc1C#C/C=C\C#Cc1ccccc1OC(F)(F)F`: the GI50 is 7.85 µM and the TGI came out at 27 µM.

`CC(C)=CCC\C(C)=C/C=C/C(C)=C\C=C\C(C)=C/C=C/C=C(C)\C=C\C=C(C)/C=C/C=C(/C)CCC=C(C)C` showed a TGI of more than 100 µM.

For `Cc1ccc(CN2CCC(C(=O)Nc3ccc(-c4cc5ccccc5[nH]4)cc3)CC2)o1`, the GI50 is more than 100 µM and the TGI was more than 100 µM.

In the case of `C=CCOc1ccc2c(C)cc(=O)oc2c1C`, the TGI was more than 100 µM.

Turning to `Nc1c(C(=O)c2cccc(CCS(N)(=O)=O)c2)cnn1-c1ccc(F)cc1`, the GI50 is more than 25 µM and the TGI was more than 25 µM.

A further assay has as its system MCF7 breast. In words: growth of human tumour cells (NCI), 48 h.
As for `NS(=O)(=O)OC[C@@H]1C[C@@H](n2ccc3c(NC4CCc5ccccc54)ncnc32)C[C@@H]1O` (stereo not given in full), the GI50 is 0.0386 µM and the TGI was more than 100 µM.

The compound `O=C1/C(=C/c2ccc(O)c(O)c2)CCC/C1=C\c1ccc(O)c(O)c1` displayed a TGI of more than 48.2 µM.

Consider `Nc1ccccc1C#C/C=C\C#Cc1ccccc1OC(F)(F)F`, for which the GI50 is 3.67 µM and the TGI was more than 100 µM.

Regarding `CC(C)=CCC\C(C)=C/C=C/C(C)=C\C=C\C(C)=C/C=C/C=C(C)\C=C\C=C(C)/C=C/C=C(/C)CCC=C(C)C`, the TGI is more than 100 µM.

For the compound `Cc1ccc(CN2CCC(C(=O)Nc3ccc(-c4cc5ccccc5[nH]4)cc3)CC2)o1`, the GI50 was more than 100 µM and the TGI was more than 100 µM.

In the case of `C=CCOc1ccc2c(C)cc(=O)oc2c1C`, the TGI was more than 100 µM.

On to `Nc1c(C(=O)c2cccc(CCS(N)(=O)=O)c2)cnn1-c1ccc(F)cc1`, for which the GI50 was more than 25 µM and the TGI was more than 25 µM.

In another assay the test system is OVCAR-3 ovarian. In words: growth of human tumour cells (NCI), 48 h.
For `NS(=O)(=O)OC[C@@H]1C[C@@H](n2ccc3c(NC4CCc5ccccc54)ncnc32)C[C@@H]1O` (stereo not given in full), the GI50 is 2.93 µM and the TGI worked out at 33.7 µM.

As to `O=C1/C(=C/c2ccc(O)c(O)c2)CCC/C1=C\c1ccc(O)c(O)c1`, the TGI was found to be 17.8 µM.

Take `Nc1ccccc1C#C/C=C\C#Cc1ccccc1OC(F)(F)F`: the GI50 was 3.49 µM and the TGI was found to be 20.5 µM.

In the case of `CC(C)=CCC\C(C)=C/C=C/C(C)=C\C=C\C(C)=C/C=C/C=C(C)\C=C\C=C(C)/C=C/C=C(/C)CCC=C(C)C`, the TGI is more than 100 µM.

With `Cc1ccc(CN2CCC(C(=O)Nc3ccc(-c4cc5ccccc5[nH]4)cc3)CC2)o1`, the GI50 was more than 100 µM and the TGI was more than 100 µM.

Compound `C=CCOc1ccc2c(C)cc(=O)oc2c1C` returned a TGI of more than 100 µM.

Consider `Nc1c(C(=O)c2cccc(CCS(N)(=O)=O)c2)cnn1-c1ccc(F)cc1`, for which the GI50 was more than 25 µM and the TGI is more than 25 µM.

A further assay deals with SF-268 CNS. The assay can be described thus: growth of human tumour cells (NCI), 48 h.
As to `NS(=O)(=O)OC[C@@H]1C[C@@H](n2ccc3c(NC4CCc5ccccc54)ncnc32)C[C@@H]1O` (stereo not given in full), the GI50 is 0.548 µM and the TGI is more than 100 µM.

`O=C1/C(=C/c2ccc(O)c(O)c2)CCC/C1=C\c1ccc(O)c(O)c1` registered a TGI of 14.7 µM.

In the case of `Nc1ccccc1C#C/C=C\C#Cc1ccccc1OC(F)(F)F`, the GI50 was 6.44 µM and the TGI worked out at 32 µM.

In turn, `CC(C)=CCC\C(C)=C/C=C/C(C)=C\C=C\C(C)=C/C=C/C=C(C)\C=C\C=C(C)/C=C/C=C(/C)CCC=C(C)C` had a TGI of more than 100 µM.

As to `Cc1ccc(CN2CCC(C(=O)Nc3ccc(-c4cc5ccccc5[nH]4)cc3)CC2)o1`, the GI50 was more than 100 µM and the TGI was more than 100 µM.

`C=CCOc1ccc2c(C)cc(=O)oc2c1C` displayed a TGI of more than 100 µM.

Turning to `Nc1c(C(=O)c2cccc(CCS(N)(=O)=O)c2)cnn1-c1ccc(F)cc1`, the GI50 is more than 25 µM and the TGI was more than 25 µM.

A further assay relates to SK-MEL-5 melanoma. The assay can be described thus: growth of human tumour cells (NCI), 48 h.
For `NS(=O)(=O)OC[C@@H]1C[C@@H](n2ccc3c(NC4CCc5ccccc54)ncnc32)C[C@@H]1O` (stereo not given in full), the GI50 was 0.305 µM and the TGI worked out at 17.2 µM.

`O=C1/C(=C/c2ccc(O)c(O)c2)CCC/C1=C\c1ccc(O)c(O)c1` came in with a TGI of 3.81 µM.

For the compound `Nc1ccccc1C#C/C=C\C#Cc1ccccc1OC(F)(F)F`, the GI50 is 4 µM and the TGI worked out at 15 µM.

Take `CC(C)=CCC\C(C)=C/C=C/C(C)=C\C=C\C(C)=C/C=C/C=C(C)\C=C\C=C(C)/C=C/C=C(/C)CCC=C(C)C`: the TGI was more than 100 µM.

`Cc1ccc(CN2CCC(C(=O)Nc3ccc(-c4cc5ccccc5[nH]4)cc3)CC2)o1`: the GI50 was 46.6 µM and the TGI is more than 100 µM.

`C=CCOc1ccc2c(C)cc(=O)oc2c1C` returned a TGI of more than 100 µM.

With `Nc1c(C(=O)c2cccc(CCS(N)(=O)=O)c2)cnn1-c1ccc(F)cc1`, the GI50 was more than 16.7 µM and the TGI was more than 25 µM.

A further assay concerns UACC-257 melanoma. The assay can be described thus: growth of human tumour cells (NCI), 48 h.
Regarding `NS(=O)(=O)OC[C@@H]1C[C@@H](n2ccc3c(NC4CCc5ccccc54)ncnc32)C[C@@H]1O` (stereo not given in full), the GI50 is 1.02 µM and the TGI was more than 90.7 µM.

`O=C1/C(=C/c2ccc(O)c(O)c2)CCC/C1=C\c1ccc(O)c(O)c1`: the TGI worked out at 17.4 µM.

For `Nc1ccccc1C#C/C=C\C#Cc1ccccc1OC(F)(F)F`, the GI50 was 12 µM and the TGI came out at 50.7 µM.

`CC(C)=CCC\C(C)=C/C=C/C(C)=C\C=C\C(C)=C/C=C/C=C(C)\C=C\C=C(C)/C=C/C=C(/C)CCC=C(C)C`: the TGI is more than 100 µM.

Consider `Cc1ccc(CN2CCC(C(=O)Nc3ccc(-c4cc5ccccc5[nH]4)cc3)CC2)o1`, for which the GI50 was more than 100 µM and the TGI is more than 100 µM.

Take `C=CCOc1ccc2c(C)cc(=O)oc2c1C`: the TGI was more than 100 µM.

Take `Nc1c(C(=O)c2cccc(CCS(N)(=O)=O)c2)cnn1-c1ccc(F)cc1`: the GI50 was more than 25 µM and the TGI was more than 25 µM.

The next assay deals with UO-31 renal. In words: growth of human tumour cells (NCI), 48 h.
Take `NS(=O)(=O)OC[C@@H]1C[C@@H](n2ccc3c(NC4CCc5ccccc54)ncnc32)C[C@@H]1O` (stereo not given in full): the GI50 was 11 µM and the TGI is more than 100 µM.

In turn, `O=C1/C(=C/c2ccc(O)c(O)c2)CCC/C1=C\c1ccc(O)c(O)c1` gave a TGI of 4.34 µM.

With `Nc1ccccc1C#C/C=C\C#Cc1ccccc1OC(F)(F)F`, the GI50 is 4.63 µM and the TGI came to 22.8 µM.

`CC(C)=CCC\C(C)=C/C=C/C(C)=C\C=C\C(C)=C/C=C/C=C(C)\C=C\C=C(C)/C=C/C=C(/C)CCC=C(C)C` gave a TGI of more than 100 µM.

With `Cc1ccc(CN2CCC(C(=O)Nc3ccc(-c4cc5ccccc5[nH]4)cc3)CC2)o1`, the GI50 was more than 100 µM and the TGI is more than 100 µM.

For `C=CCOc1ccc2c(C)cc(=O)oc2c1C`, the TGI is more than 100 µM.

Take `Nc1c(C(=O)c2cccc(CCS(N)(=O)=O)c2)cnn1-c1ccc(F)cc1`: the GI50 is more than 25 µM and the TGI was more than 25 µM.
